“Also recorded” adds a separate entry of the source. Like-named read-outs stand apart in the source and are kept apart here.
What was measured:
[1] = Photophysical analysis: absorption, excitation and emission at 10 μM (Example 5); type: physicochemical; details: EtOH at 10 μM
[2] = Quantum yield by single-point method; details: single-point method in EtOH
[3] = Photophysical analysis: absorption, excitation and emission at 10 μM (Example 5); type: physicochemical; details: for λabs / λem / Stokes Shift: acetonitrile at 10 μM; for λex (excitation wavelength): acetonitrile at 10 μM (footnotes a,b); for Stokes Shift: calculated from excitation wavelength; for λex: footnotes a,g: acetonitrile at 10 μM / EtOH at 10 μM
Experimental: (§1) All data were collected on a SHIMAZDU Spectrofluorometer RF-5301PC. Solutions of the respective compounds were prepared in acetonitrile at approximately 1 mM concentration. Solutions (4 mL) were added to a freshly washed quartz cuvette for measurements. The excitation wavelength was varied between 270 nm and 390 nm in 20 nm intervals until the greatest intensity emission was detected. The emission spectra ranges started at 20 nm to the red of the chosen excitation wavelength up to 780 nm. Scan speed was set at “Very Fast” with both the slit widths set to 1.5 mm.
(§2) All data were collected on a SHIMAZDU Spectrofluorometer RF-5301PC. Solutions of the respective compounds were prepared in acetonitrile at approximately 1 mM concentration. Solutions (4 mL) were added to a freshly washed quartz cuvette for measurements. The monitored emission wavelength was set using the high intensity emission from the respective molecule. The scanning range was from 220 nm through 770 nm. Scan speed was set at “Very Fast” with both the slit widths set to 1.5 mm.
Excitation/emission data for compounds 6b, 7b, 8b, 15b, 16b, and 17b were collected using the methods described in Example 3 but using a lower concentration of acetonitrile (10 μM). Compounds 15b, 16b and 17b and their parent molecules (6b, 7b and 8b) all luminesce in the visible range and their optical properties are described in Table 4. […] The wavelength of λex for the excitation scan corresponds to excitation to S1, which leads to emission. This λex for all the molecules were red shifted, or shifted to the direction of longer wavelengths, from the peak absorption by an average 40 nm.

[4] = Emission and excitation scans on spectrofluorometer, approximately 1 mM in acetonitrile (Example 3); type: physicochemical
Experimental: General Procedure for Emission and Excitation Data Collection:
as §1, §2

[5] = tested on: HeLa human cervical carcinoma cell line; assay: Cell imaging of HeLa cells incubated with compound, fluorescence microscopy; type: cell-based; details: 1 μM; for tracking with chromosomes during mitosis / luminescence intensity in cells / location of luminescence in the cell: 120 min; for luminescence intensity in cells: excitation 350 nm, emission approximately 400 nm; for location of luminescence in the cell: merged bright field and UV images
Experimental: HeLa human cervical carcinoma cell line was obtained from ATCC (Manassas, Va.). The cells were cultured in a humidified incubator at 5% CO2 and 37° C. The cell line was grown in D-MEM (Invitrogen) high glucose supplemented with 10.0% fetal bovine serum (Invitrogen, Carlsbad, Calif.) and 1.0% Penicillin/Streptomycin (Invitrogen, Carlsbad, Calif.) for an environment suitable for cell growth. The culture was sub-cultured every three days to maintain normal cell growth.
Sterile glass PDL coated #1.5 cover slips (NeuVitro), pre-incubated with culture medium, were placed in sterile 6-well plates. Single cell suspension of the HeLa (cervical cancer cells taken from patient Henrietta Lacks) cell line was prepared at 5×10^4 cells ml^−1 in the appropriate medium. Volumes of 2.0 mL were pipetted into each of the wells containing the coverslips. The 6-well plate was left overnight at 37.0° C. in a 5.0% CO2 incubator. Following the overnight incubation, the plate was aspirated dry and then fresh culture medium, containing the drug (at 1.0 μM and 0.10% DMSO) in a volume of 2.0 mL, was gently pipetted onto the cell monolayers attached to the glass cover slips. Cells on the cover slips were exposed to the drug for approximately 2 hours. Cells were washed with PBS and treated with 4.0% paraformaldehyde solution prepared in PBS, incubated for 30 minutes at room temperature for […]. Several washes with PBS were completed to ensure excess solution was rinsed away. Glass cover slips were removed and mounted on slides with ProLong Gold Antifade Mountant (ThermoFisher Scientific). The specimen was dried for several minutes and sealed with clear nail polish before visualized under a microscope
Cell Image Captures: All images were captured with a Leica DM 4000 B microscope with a DFC3000G camera (Leica Microsystems, Germany) and 63× oil immersion lens. HeLa cells were staged according to the method above. Leica LASX Core Software (Leica Microsystems, Germany) was used to acquire the images.
Stained cells were clearly observed by exciting the cells with a broadly emitting lamp using DAPI filter set. Luminescence was observed within the cell bodies of the HeLa cells upon excitation of the UV wavelengths. The excitation wavelength was 350 nm and the emission wavelength was approximately 400 nm. FIG. 14 depicts representative images of HeLa cervical cancer cell lines incubated with Compounds 16b, 15b, and 17b (1 μM) for 120 min. Bright field images of cells incubated with compounds 16b, 15b, and 17b are shown in Panels A, D, and G, respectively. Luminescence from each compound (16b, 15b, and 17b) is shown in Panels B, E, and H, respectively, with UV laser radiation.

HeLa cells = assay: Anti-proliferation (MTS) assay, HeLa cells, 72 hours; type: cell-based, human; details: 1 nM to 100 μM
Experimental: To determine whether long-term exposure to each compound could be toxic to cells, Hela cells were treated with varying concentrations of Compounds 16b, 15b and 17b for 72 hours. An anti-proliferation protocol was carried out by testing chosen compounds on the growth of the human cervical cancer cell lines. HeLa cells were cultured in their respective media supplemented with 10.0% FBS (fetal bovine serum) and 1.0% Pen/Strep. Cells (1,000 cells/100 μL per well) were plated in a 96-well culture plate (TC treated, Greiner) and incubated for 24 h. 50 μL (DMSO <1%) of the compound at final concentrations 100 μM, 10 μM, 1 μM, 100 nM, 10 nM, and 1 nM were added to the appropriate wells. Triplicates wells were performed for each compound, on three identical plates.
After incubation of the cells, at 37° C. in a humidified atmosphere of 5% CO2 for 72 hours, the cells were stained and incubated with MTS (3-(4,5-dimethylthiazol-2-yl)-5-(3-carboxymethoxyphenyl)-2-(4-sulfophenyl)-2H-tetrazolium) reagent in the presence of PMS (phenazine methosulfate) reagent for 2 hours to determine cell viability. An MTS assay is based on the reduction of the MTS tetrazolium compound by viable cells to generate a colored formazan dye that is soluble in cell culture media. The absorbance of each well was taken at 490 nm using a multimode plate reader (FlexStation 3, Molecular Devices, San Diego, Calif.). GraphPad Prism was used to analyze transposed data to determine the percent viability. […] Each compound was tested in at least triplicate.

[6] = cell footnote a: acetonitrile at 10 μM

Compound | log εmax (maximum molar extinction coefficient) [1] [M^−1 cm^−1] | λem [1] [nm] | φ (quantum yield) [2] | log εex (molar extinction coefficient at excitation wavelength) [3] [M^−1 cm^−1] | λabs [3] [nm] | λem [3] [nm] | λex (excitation wavelength) [3] [nm] | Stokes Shift [3] [nm] | λex [3] [nm] | emission wavelength (emitted at) [4] | excitation wavelength (excited at) [4] [nm] | luminescence colour [4] | tracking with chromosomes during mitosis [5] | luminescence intensity in cells [5] | location of luminescence in the cell [5] | cytotoxicity / decrease in cell viability (HeLa cells) | log εex (molar extinction coefficient at excitation wavelength) [3, 6] | log εmax (maximum molar extinction coefficient) [3, 6] | effect on cell morphology ([5]; FIG. 14 panel G)
O=S(=O)(Oc1ccccc1)c1ccc2c(c1)-c1cc(-c3ccccc3)ccc1S2(=O)=O [Compound 6b, phenyl 8-phenyldibenzo[b,d]thiophene-2-sulfonate 5,5-dioxide] | 4.69 | 434 | 0.05 | 4.45 | 238 | 426 | 274 | 152 | 275 | about 437 nm | 344 | luminesced in either a deep blue or near blue wavelength |  |  |  |  |  |  | 
O=S(=O)(Oc1ccccc1)c1ccc2c(c1)c1cc(-c3cccc4ccccc34)ccc1[s+]2[O-] (stereo not shown) [Compound 7a, phenyl 8-(naphthalen-1-yl)dibenzo[b,d]thiophene-2-sulfonate 5-oxide] |  |  |  |  |  |  |  |  |  |  |  | luminesced in either a deep blue or near blue wavelength |  |  |  |  |  |  | 
O=S(=O)(Oc1ccccc1)c1ccc2c(c1)-c1cc(-c3cccc4ccccc34)ccc1S2(=O)=O [Compound 7b, phenyl 8-(naphthalen-1-yl)dibenzo[b,d]thiophene-2-sulfonate 5,5-dioxide] | 4.79 | 486 | 0.15 | 4.51 | 243 | 492 | 274 | 218 | 274 | 499 nm | 367 | luminesced in either a deep blue or near blue wavelength |  |  |  |  |  |  | 
O=S(=O)(Oc1ccccc1)c1ccc2c(c1)c1cc(-c3ccc(-c4ccccc4)cc3)ccc1[s+]2[O-] (stereo not shown) [Compound 8a, phenyl 8-([1,1′-biphenyl]-4-yl)dibenzo[b,d]thiophene-2-sulfonate 5-oxide] |  |  |  |  |  |  |  |  |  | 477 nm | 365 | luminesced in either a deep blue or near blue wavelength |  |  |  |  |  |  | 
O=S(=O)(Oc1ccccc1)c1ccc2c(c1)-c1cc(-c3ccc(-c4ccccc4)cc3)ccc1S2(=O)=O [Compound 8b, phenyl 8-([1,1′-biphenyl]-4-yl)dibenzo[b,d]thiophene-2-sulfonate 5,5-dioxide] | 4.59 | 478 | 0.59 | 4.17 | 243 | 485 | 283 | 202 | 286 | 475 nm | 366 | luminesced in either a deep blue or near blue wavelength |  |  |  |  |  |  | 
O=S(=O)([O-])c1ccc2c(c1)-c1cc(-c3ccccc3)ccc1S2(=O)=O.[Na+] [Compound 15b, sodium 8-phenyldibenzo[b,d]thiophene-2-sulfonate 5,5-dioxide] | 4.67 | 380 | 0.07 | 4.4 | 248 | 371 | 268 | 103 | 274 |  |  |  | track with chromosomes during mitosis | intense luminescence | luminescence is clearly identified within the nucleus of the cell | do not show any decrease in cell viability at any concentration tested; also recorded: low cytotoxicity |  |  | 
O=S(=O)([O-])c1ccc2c(c1)-c1cc(-c3ccc(-c4ccccc4)cc3)ccc1S2(=O)=O.[Na+] [Compound 16b, sodium 8-([1,1′-biphenyl]-4-yl)dibenzo[b,d]thiophene-2-sulfonate 5,5-dioxide] |  | 422 | 0.29 |  | 246 | 412 | 287 | 125 | 284 |  |  |  | track with chromosomes during mitosis | intense luminescence | luminescence is clearly identified within the nucleus of the cell | begins to show some degree of toxicity at 100 μM; also recorded: low cytotoxicity | 2.48^a M^−1 cm^−1 | 4.75^a M^−1 cm^−1 | 
O=S(=O)([O-])c1ccc2c(c1)-c1cc(-c3cccc4ccccc34)ccc1S2(=O)=O.[Na+] [Compound 17b, sodium 8-(naphthalen-1-yl)dibenzo[b,d]thiophene-2-sulfonate 5,5-dioxide] | 4.67 | 428 | 0.55 | 4.36 | 250 | 421 | 274 | 147 | 274 |  |  |  |  | slight luminescence | luminescence is clearly identified within the nucleus of the cell | do not show any decrease in cell viability at any concentration tested; also recorded: no observed cytotoxicity |  |  | seemed to influence the morphology of HeLa cells

Reference: patent US10221153B2, “Dibenzothiophene compounds” (Saint Louis University, priority 2017, dated 2019)
